This is an account of results in patent US10526336B2, “Fused heteroaryl derivatives as orexin receptor antagonists” (Merck Sharp & Dohme Corp., priority 2014, dated 2020).

This assay deals with human orexin-2 receptor (Homo sapiens (Human), UniProt O43614). As to the kind of experiment: FLIPR Ca2+ Flux Assay, orexin-2 receptor antagonism in CHO cells. The assay is classed as cell-based. The following applies: CHO cells expressing the human orexin-2 receptor; agonist 70 pM Ala-6,12 orexin-A; read-out: hOX2 FLIPR IC50. In a few lines: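 CHO cells expressing rat OX1R or human OX2R, Fluo-4AM loaded, given compounds for 5 min, then challenged with 70 pM Ala-6,12 human orexin-A in HBSS/HEPES/BSA/probenecid, pH 7.4. FLIPR calcium fluorescence recorded 5 min; peak height versus agonist-alone gives IC50.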
human orexin-2 receptor, sequence (O43614 whole entry): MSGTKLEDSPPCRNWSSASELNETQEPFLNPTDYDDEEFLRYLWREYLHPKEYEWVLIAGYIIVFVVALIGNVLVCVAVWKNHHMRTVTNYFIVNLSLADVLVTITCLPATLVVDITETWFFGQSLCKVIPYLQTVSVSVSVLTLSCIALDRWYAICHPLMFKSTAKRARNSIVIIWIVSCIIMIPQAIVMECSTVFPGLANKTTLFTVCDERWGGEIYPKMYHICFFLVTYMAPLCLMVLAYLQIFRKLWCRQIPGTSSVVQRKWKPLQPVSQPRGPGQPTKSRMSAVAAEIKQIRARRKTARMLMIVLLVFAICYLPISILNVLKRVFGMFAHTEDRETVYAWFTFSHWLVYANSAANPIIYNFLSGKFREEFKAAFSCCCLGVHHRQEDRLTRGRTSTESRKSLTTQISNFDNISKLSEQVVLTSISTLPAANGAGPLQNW
In general terms: Calcium flux is commonly read through the fluorescence of an indicator in the cells.

Take `C[C@@H]1CC[C@@H](Oc2nccn3cc(C#N)nc23)CN1C(=O)c1ccccc1-n1nccn1` [Example 24, 8-(((3R,6R)-1-(2-(2H-1,2,3-triazol-2-yl)benzoyl)-6-methylpiperidin-3-yl)oxy)imidazo[1,2-a]pyrazine-2-carbonitrile]: the half-maximal inhibitory concentration (IC50) is 0.0882 µM.

As for `C[C@@H]1CC[C@@H](Nc2nccc3nn(C)cc23)CN1C(=O)c1ccccc1-n1nccn1` [Example 97, (2-(2H-1,2,3-triazol-2-yl)phenyl)((2R,5R)-2-methyl-5-((2-methyl-2H-pyrazolo[4,3-c]pyridin-4-yl)amino)piperidin-1-yl) methanone], the IC50 is 0.124 µM. As to `Cc1nc2ccnc(O[C@@H]3CC[C@@H](C)N(C(=O)c4ccccc4-n4nccn4)C3)n2n1` [Example 104, (2-(2H-1,2,3-triazol-2-yl)phenyl)((2R,5R)-2-methyl-5-((2-methyl-[1,2,4]triazolo[1,5-c]pyrimidin-5-yl)oxy)piperidin-1-yl)methanone], the half-maximal inhibitory concentration (IC50) is 0.06 µM. The figure for `CCOc1ccccc1C(=O)N1C[C@H](Oc2ccnc3ocnc23)CC[C@H]1C` [Example 94, (2-ethoxyphenyl)((2R,5R)-2-methyl-5-(oxazolo[5,4-b]pyridin-7-yloxy)piperidin-1-yl)methanone] is 0.0244 µM; for `Cc1cn2ccnc(O[C@@H]3CC[C@@H](C)N(C(=O)c4ccccc4C4(C#N)CC4)C3)c2n1` [Example 9, 1-(2-((2R,5R)-2-methyl-5-((2-methylimidazo[1,2-α]pyrazin-8-yl)oxy)piperidine-1-carbonyl)phenyl)cyclopropanecarbonitrile] it is 0.0132 µM. As for `C[C@@H]1CC[C@@H](Oc2nccn3c(C(F)F)cnc23)CN1C(=O)c1cscc1-c1ncccn1` [Example 55, ((2R,5R)-5-((3-(difluoromethyl)imidazo [1,2-α]pyrazin-8-yl)oxy)-2-methylpiperidin-1-yl)(4-(pyrimidin-2-yl)thiophen-3-yl)methanone], the IC50 is 0.0449 µM. As to `C[C@@H]1CC[C@@H](Oc2nccn3c(C(F)(F)F)cnc23)CN1C(=O)c1cccnc1-n1cccn1` [Example 65, (2-(1H-pyrazol-1-yl)pyridin-3-yl) ((2R,5R)-2-methyl-5-((3-(trifluoromethyl)imidazo [1,2-α]pyrazin-8-yl)oxy)piperidin-1-yl)methanone], the IC50 worked out at 0.024 µM. As for `C[C@@H]1CC[C@@H](Oc2ccnc3ocnc23)CN1C(=O)c1ccccc1-n1nccn1` [Example 91, (2-(2H-1,2,3-triazol-2-yl)phenyl)((2R,5R)-2-methyl-5-(oxazolo[5,4-b]pyridin-7-yloxy)piperidin-1-yl)methanone], the figure is 0.0163 µM; as for `C[C@@H]1CC[C@@H](Oc2nccn3c(Cl)cnc23)CN1C(=O)c1ccccc1-n1nccn1` [Example 26, (2-(2H-1,2,3-triazol-2-yl)phenyl)((2R,5R)-5-((3-chloroimidazo[1,2-a]pyrazin-8-yl)oxy)-2-methylpiperidin-1-yl)methanone], 0.0121 µM; as for `C[C@@H]1CC[C@@H](Oc2nccn3ccnc23)CN1C(=O)c1ccccc1-n1nccn1` [Example 1, (2-(2H-1,2,3-triazol-2-yl)phenyl)((2R,5R)-5-(imidazo[1,2-a]pyrazin-8-yloxy)-2-methylpiperidin-1-yl)methanone], 0.0358 µM.

Take `C[C@@H]1CC[C@@H](Oc2nccn3nccc23)CN1C(=O)c1ccccc1-c1ncccn1` [Example 85, ((2R,5R)-2-methyl-5-(pyrazolo[1,5-a]pyrazin-4-yloxy)piperidin-1-yl)(2-(pyrimidin-2-yl)phenyl)methanone]: the half-maximal inhibitory concentration (IC50) came to 0.0155 µM. `C[C@@H]1CC[C@@H](Oc2nccc3c2cnn3C)CN1C(=O)c1ccccc1-n1nccn1` [Example 95, (2-(2H-1,2,3-triazol-2-yl)phenyl)((2R,5R)-2-methyl-5-((1-methyl-1H-pyrazolo[4,3-c]pyridin-4-yl)oxy)piperidin-1-yl)methanone]: the half-inhibitory concentration (IC50) came out at 0.0178 µM. On to `C[C@@H]1CC[C@@H](Oc2nccn3c(C(F)(F)F)cnc23)CN1C(=O)c1ccccc1-n1nccn1` [Example 57], for which the IC50 is 0.0131 µM.

In general, IC50 refers to the midpoint of a concentration-inhibition curve.
